# In PMC12920295, “Novel radiohybrid PET-Tracers for SST2-targeted imaging of neuroendocrine tumors” (European Journal of Nuclear Medicine and Molecular Imaging, 2025):
# Where two headings read alike, the source gives them in different places.
# Columns and labels:
# [1] = Lipophilicity LogDpH=7.4, shake flask method; assay type: physicochemical; conditions: PBS (pH = 7.4)/n-octanol
# Experimental: The LogDpH=7.4 was determined using a modified shake flask method as previously described.
# [2] = molecular target: T1, human serum albumin (HSA) (Homo sapiens, UniProt P02768); assay: HSA binding by high performance affinity chromatography (HPAC); assay type: in vitro ADME; conditions: affinity to HSA by affinity chromatography (Chiralpak HSA column)
# T1 construct: purchased H13H-2433
# Experimental: For the determination of binding to human serum albumin (HSA) using HPLC, a Chiralpak HSA column (50 × 3 mm, 5 μm, H13H-2433) was used at a constant flow rate of 0.5 ml/min. The mobile phase (A: NH4OAc, 50 mM in H2O, pH 6.9 and B: iPrOH) was freshly prepared for each day.
# [3] = system: AR42J cells; assay: Internalization into AR42J cells relative to [125I]TOC; assay type: cell-based; conditions: percentage compared to internal reference [125I]TOC
# Experimental: AR42J cells (European Collection of Cell Cultures, Salisbury, UK) were grown in RPMI 1640 medium (with 2 mM, L-Glu, 10% FCS; v/v, 37 °C, 5% CO2), harvested 24 ± 2 h and seeded in 24-well poly-L-lysine plates (2.0 × 10^5 cells/well in 1 ml culture medium). After removal of the medium, the cells were washed with assay medium (300 µl, RPMI 1640 with 2 mM L-Glu, 5% BSA; v/v) and incubated in assay medium (200 µl, 15 min, 37 °C, 5% CO2). 25 µl of the ^18F-labeled ligand (20 nM) and [^125I]TOC (1 nM) in assay medium were added followed by either 25 µl TOC in assay medium (100 µM, competition experiment) or 25 µl of assay medium (internalization experiment). Cells were incubated at 37 °C for 15, 30, and 60 min (n = 3 per compound and time point), respectively, and chilled on ice. The supernatant was collected, the well washed with ice-cold RPMI 1640 (300 µl), and the two fractions combined (unbound ligand). The cells were incubated with acid wash solution (300 µl, 0.9% NaCl, 50 mM NaOAc/AcOH buffer, pH = 4.6, 15 min, 4 °C) to remove receptor-bound radioligand. The supernatant was collected, and the cells washed with 300 µl ice-cold acid wash solution (combined fractions: acid releasable, receptor bound ligand). The cells were lysed with NaOH solution (300 µl, 1 M, 15 min, RT), washed with 300 µl of the same solution, the two fractions combined (internalized ligand), and all activities quantified using a γ-counter.
# [4] = Biodistribution 1 h p.i. in AR42J xenograft bearing CD1 nu/nu mice; assay type: in vivo; conditions: female, mouse, intravenous, total radioactivity, average ± Stdev
# Experimental: The 8-week-old female CD1 nu/nu mice were purchased from Charles River (Sulzfeld, Germany). Animal experiments were conducted according to general animal welfare regulations (German animal protection act, as amended on 18.05.2018, Art. 141 G v. 29.3.2017 I 626, approval no. 55.2-1.2-54–2532-71-13 by the General Administration of the Free State of Bavaria; Swiss animal welfare regulations: Animal Welfare Act SR 455, license: Canton de Vaud, 3781 d). To establish tumor xenografts, AR42J cells (5 × 10^6 cells in 100 µl serum-free culture medium) were inoculated subcutaneously onto the shoulder. Mice were used for experiments when tumors had grown to a diameter of 5–9 mm (7–15 days after inoculation).
# Approximately 0.5–2.5 MBq (0.05–0.20 nmol) of the ^18F-labeled ligands were injected into the tail vein of AR42J xenograft-bearing mice under isoflurane anesthesia (1.5% alveolar concentration). The mice were sacrificed 1 h post injection (n = 3–5). Organs were removed, weighed, and the activity quantified (γ-counter).
# An unpaired Welch’s t-test was applied using the GraphPad Prism software (version 10.1.2). Standard deviations for tumor-to-organ (T/O) ratios were calculated using the rules of error propagation. Thresholds for statistical significance are defined as: p > 0.05 (ns); p ≤ 0.05 (*); p ≤ 0.01 (**); p ≤ 0.001 (***); p ≤ 0.0001 (****).
# [5] = adrenal glands, AR42J tumor-bearing CD1 nu/nu mice, read-out: Biodistribution Adrenal Glands
# [6] = blood, AR42J tumor-bearing CD1 nu/nu mice, read-out: Biodistribution Blood
# [7] = femur, AR42J tumor-bearing CD1 nu/nu mice, read-out: Biodistribution Femur
# [8] = heart, AR42J tumor-bearing CD1 nu/nu mice, read-out: Biodistribution Heart
# [9] = intestine, AR42J tumor-bearing CD1 nu/nu mice, read-out: Biodistribution Intestine
# [10] = kidney, AR42J tumor-bearing CD1 nu/nu mice, read-out: Biodistribution Kidney
# [11] = liver, AR42J tumor-bearing CD1 nu/nu mice, read-out: Biodistribution Liver
# [12] = lung, AR42J tumor-bearing CD1 nu/nu mice, read-out: Biodistribution Lung
# [13] = muscle, AR42J tumor-bearing CD1 nu/nu mice, read-out: Biodistribution Muscle
# [14] = pancreas, AR42J tumor-bearing CD1 nu/nu mice, read-out: Biodistribution Pancreas
# [15] = spleen, AR42J tumor-bearing CD1 nu/nu mice, read-out: Biodistribution Spleen
# [16] = stomach, AR42J tumor-bearing CD1 nu/nu mice, read-out: Biodistribution Stomach
# [17] = tumor (AR42J xenograft), AR42J xenograft, CD1 nu/nu mice, read-out: Biodistribution Tumor
# T1 sequence (P02768 25-609): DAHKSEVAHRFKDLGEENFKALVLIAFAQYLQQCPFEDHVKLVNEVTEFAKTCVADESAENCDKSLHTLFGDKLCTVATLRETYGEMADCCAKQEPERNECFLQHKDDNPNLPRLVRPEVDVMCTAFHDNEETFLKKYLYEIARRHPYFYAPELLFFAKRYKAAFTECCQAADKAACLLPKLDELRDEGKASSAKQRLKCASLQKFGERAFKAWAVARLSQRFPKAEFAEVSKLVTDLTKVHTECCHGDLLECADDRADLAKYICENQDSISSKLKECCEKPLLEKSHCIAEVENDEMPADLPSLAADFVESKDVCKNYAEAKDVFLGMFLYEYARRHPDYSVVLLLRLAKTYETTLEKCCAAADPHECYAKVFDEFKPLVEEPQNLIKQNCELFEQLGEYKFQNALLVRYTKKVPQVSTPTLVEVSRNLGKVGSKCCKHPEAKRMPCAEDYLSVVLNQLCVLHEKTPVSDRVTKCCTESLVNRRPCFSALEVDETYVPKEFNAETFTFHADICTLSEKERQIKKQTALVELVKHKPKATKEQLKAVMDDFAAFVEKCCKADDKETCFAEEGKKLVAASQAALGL
smiles,measurement,setting,value
"C[C@@H](O)[C@H](NC(=O)[C@@H]1CSSC[C@H](NC(=O)[C@@H](Cc2ccccc2)NC(=O)CN2CCN(CC(=O)O)CCN(CC(=O)NCCCC[C@@H](NC(=O)[C@@H](CNC(=O)C[N+](C)(C)Cc3ccc([Si](F)(C(C)(C)C)C(C)(C)C)cc3)NC(=O)[C@@H](CCCNC(N)=O)NC(=O)[C@@H](CCCNC(N)=O)NC(=O)[C@H](N)CCCNC(N)=O)C(=O)O)CCN(CC(=O)O)CC2)C(=O)N[C@@H](Cc2ccc(O)cc2)C(=O)N[C@H](Cc2c[nH]c3ccccc23)C(=O)N[C@@H](CCCCN)C(=O)N[C@@H]([C@@H](C)O)C(=O)N1)C(=O)O [[^18/natF][^natGa]rhTATE2.1, metal not drawn]",LogDpH=7.4,[1]; mean of n = 8,−2.27
same,HSA HPAC,[2],98.8%
same,Internalization,[3],536%
"C[C@@H](O)[C@H](NC(=O)[C@@H]1CSSC[C@H](NC(=O)[C@@H](Cc2ccccc2)NC(=O)CN2CCN(CC(=O)O)CCN(CC(=O)NCCCC[C@@H](NC(=O)[C@@H](CNC(=O)C[N+](C)(C)Cc3ccc([Si](F)(C(C)(C)C)C(C)(C)C)cc3)NC(=O)[C@@H](CCCNC(N)=O)NC(=O)[C@@H](CCCNC(N)=O)NC(=O)[C@H](N)CCC(=O)O)C(=O)O)CCN(CC(=O)O)CC2)C(=O)N[C@@H](Cc2ccc(O)cc2)C(=O)N[C@H](Cc2c[nH]c3ccccc23)C(=O)N[C@@H](CCCCN)C(=O)N[C@@H]([C@@H](C)O)C(=O)N1)C(=O)O [[^18/natF][^natGa]rhTATE2.2, metal not drawn]",tissue uptake at 1 h,[4]; [5],4.35 ± 0.69 %ID/g
same,tissue uptake at 1 h,[4]; [6],0.39 ± 0.19 %ID/g
same,tissue uptake at 1 h,[4]; [7],1.7 ± 0.45 %ID/g
same,tissue uptake at 1 h,[4]; [8],0.33 ± 0.01 %ID/g
same,tissue uptake at 1 h,[4]; [9],2.87 ± 0.15 %ID/g
same,tissue uptake at 1 h,[4]; [10],32.6 ± 3.5 %ID/g
same,tissue uptake at 1 h,[4]; [11],2.43 ± 0.36 %ID/g
same,tissue uptake at 1 h,[4]; [12],6.29 ± 0.65 %ID/g
same,tissue uptake at 1 h,[4]; [13],0.06 ± 0.01 %ID/g
same,tissue uptake at 1 h,[4]; [14],31.5 ± 2.32 %ID/g
same,tissue uptake at 1 h,[4]; [15],1.31 ± 0.2 %ID/g
same,tissue uptake at 1 h,[4]; [16],13.4 ± 1.6 %ID/g
same,tissue uptake at 1 h,[4]; [17],27.9 ± 4.78 %ID/g
same,LogDpH=7.4,[1]; mean of n = 8,−2.30
same,HSA HPAC,[2],94.3%
same,Internalization,[3],550%
"C[C@@H](O)[C@H](NC(=O)[C@@H]1CSSC[C@H](NC(=O)[C@@H](Cc2ccccc2)NC(=O)CN2CCN(CC(=O)O)CCN(CC(=O)NCCCC[C@@H](NC(=O)[C@@H](CNC(=O)C[N+](C)(C)Cc3ccc([Si](F)(C(C)(C)C)C(C)(C)C)cc3)NC(=O)[C@@H](CN)NC(=O)[C@@H](CCC(=O)O)NC(=O)[C@H](N)CCC(=O)O)C(=O)O)CCN(CC(=O)O)CC2)C(=O)N[C@@H](Cc2ccc(O)cc2)C(=O)N[C@H](Cc2c[nH]c3ccccc23)C(=O)N[C@@H](CCCCN)C(=O)N[C@@H]([C@@H](C)O)C(=O)N1)C(=O)O [[^18/natF][^natGa]rhTATE2.3, metal not drawn]",LogDpH=7.4,[1]; mean of n = 8,−2.12
same,HSA HPAC,[2],96.0%
same,Internalization,[3],619%
"C[C@@H](O)[C@H](NC(=O)[C@@H]1CSSC[C@H](NC(=O)[C@@H](Cc2ccccc2)NC(=O)CN2CCN(CC(=O)O)CCN(CC(=O)NCCCC[C@@H](NC(=O)[C@@H](CNC(=O)C[N+](C)(C)Cc3ccc([Si](F)(C(C)(C)C)C(C)(C)C)cc3)NC(=O)[C@@H](CCCCN)NC(=O)[C@@H](CCC(=O)O)NC(=O)[C@H](N)CCC(=O)O)C(=O)O)CCN(CC(=O)O)CC2)C(=O)N[C@@H](Cc2ccc(O)cc2)C(=O)N[C@H](Cc2c[nH]c3ccccc23)C(=O)N[C@@H](CCCCN)C(=O)N[C@@H]([C@@H](C)O)C(=O)N1)C(=O)O [[^18/natF][^natGa]rhTATE2.4, metal not drawn]",LogDpH=7.4,[1]; mean of n = 8,−2.28
same,HSA HPAC,[2],92.7%
same,Internalization,[3],841%
"CC(=O)N[C@@H]1[C@@H](O)[C@H](O)[C@@H](CO)O[C@H]1NC(=O)C[C@H](NC(=O)C[N+](C)(C)Cc1ccc([Si](F)(C(C)(C)C)C(C)(C)C)cc1)C(=O)N[C@@H](CC(=O)O)C(=O)N[C@@H](CC(=O)O)C(=O)NCCOCCOCC(=O)N[C@H](Cc1ccccc1)C(=O)N[C@H]1CSSC[C@@H](C(=O)N[C@H](C(=O)O)[C@@H](C)O)NC(=O)[C@H]([C@@H](C)O)NC(=O)[C@H](CCCCN)NC(=O)[C@@H](Cc2c[nH]c3ccccc23)NC(=O)[C@H](Cc2ccc(O)cc2)NC1=O [[^nat/18F]SiTATE, SiFAlin-Asn(Ac-NHβGlc)Asp2-PEG1-TATE, reference compound]",tissue uptake at 1 h,[4]; [5],1.89 ± 0.37 %ID/g
same,tissue uptake at 1 h,[4]; [6],0.81 ± 0.11 %ID/g
same,tissue uptake at 1 h,[4]; [7],1.54 ± 0.34 %ID/g
same,tissue uptake at 1 h,[4]; [8],0.47 ± 0.06 %ID/g
same,tissue uptake at 1 h,[4]; [9],1.67 ± 0.21 %ID/g
same,tissue uptake at 1 h,[4]; [10],16.3 ± 1 %ID/g
same,tissue uptake at 1 h,[4]; [11],1.97 ± 0.25 %ID/g
same,tissue uptake at 1 h,[4]; [12],3.38 ± 0.62 %ID/g
same,tissue uptake at 1 h,[4]; [13],0.15 ± 0.02 %ID/g
same,tissue uptake at 1 h,[4]; [14],8.94 ± 1.98 %ID/g
same,tissue uptake at 1 h,[4]; [15],0.66 ± 0.08 %ID/g
same,tissue uptake at 1 h,[4]; [16],6.75 ± 0.58 %ID/g
same,tissue uptake at 1 h,[4]; [17],22.7 ± 2.68 %ID/g
same,LogDpH=7.4,[1]; mean of n = 8,−1.27
same,HSA HPAC,[2],86.8%
same,Internalization,[3],236%
"C[C@@H](O)[C@H](NC(=O)[C@@H]1CSSC[C@H](NC(=O)[C@@H](Cc2ccccc2)NC(=O)CN2CCN(CC(=O)O)CCN(CC(=O)NC[C@@H](NC(=O)C[N+](C)(C)Cc3ccc([Si](F)(C(C)(C)C)C(C)(C)C)cc3)C(=O)O)CCN(CC(=O)O)CC2)C(=O)N[C@@H](Cc2ccc(O)cc2)C(=O)N[C@H](Cc2c[nH]c3ccccc23)C(=O)N[C@@H](CCCCN)C(=O)N[C@@H]([C@@H](C)O)C(=O)N1)C(=O)O [[^nat/18F][^natGa]rhTATE1, N-SiFAlin-N, N-Me2-Gly-D-Dap(trans-[^natGa]DOTA-TATE), metal not drawn]",LogDpH=7.4,[1]; mean of n = 8,−1.03
same,LogDpH=7.4,"[1]; mean of n = 8, listed as [^natGa]rhTATE1",-1.03
same,HSA HPAC,[2],95.4%
"C[C@@H](O)[C@H](NC(=O)[C@@H]1CSSC[C@H](NC(=O)[C@@H](Cc2ccccc2)NC(=O)CN2CCN(CC(=O)O)CCN(CC(=O)NCCCC[C@@H](NC(=O)C[N+](C)(C)Cc3ccc([Si](F)(C(C)(C)C)C(C)(C)C)cc3)C(=O)O)CCN(CC(=O)O)CC2)C(=O)N[C@@H](Cc2ccc(O)cc2)C(=O)N[C@H](Cc2c[nH]c3ccccc23)C(=O)N[C@@H](CCCCN)C(=O)N[C@@H]([C@@H](C)O)C(=O)N1)C(=O)O [[^nat/18F][^natGa]rhTATE2, N-SiFAlin-N, N-Me2-Gly-D-Lys(trans-[^natGa]DOTA-TATE), metal not drawn]",LogDpH=7.4,[1]; mean of n = 8,−1.19
same,HSA HPAC,[2],94.5%
